In experiment [1] the test system is GD8/6 cells. In words: FVIII expression and growth of GD8/6 cells in 10 L chemostat culture with BAV-medium. Format: cell-based. On the procedure:
The volumetric productivity (QP) is calculated from the amount of activity units yielded per liter reactor volume per day (U/L/d) in the production system.
Cell cultures of recombinant mammalian cells (e.g., CHO-cells stably expressing Factor VIII, such as GD8/6 cells) were grown in suspension in a chemostat culture in 10 l bioreactors. The culture conditions of 37° C., oxygen saturation 20%, and pH 7.0 to 7.1 were kept constant. The cultures were supplied with a constant feed of BAV-medium.

Experiment [2] concerns GD8/6 cells. In words: Small scale spinner flask culture of GD8/6 cells in BAV-medium: FVIII productivity and growth rate. Conditions: added to BAV-medium, range 0-18 mg/L; spinner flasks 200 ml.
Method: Cell counts from suspension cells or immobilized cells were determined either by counting with a CASY® cell counter as described by Scharfe et al., Biotechnologie in LaborPraxis 10: 1096-1103 (1988), or by citric acid extraction and fluorescent staining of the nuclei followed by counting with a NucleoCounter® (Chemometec, DK). The specific growth rate (p) is calculated from the increase of the cell densities(Xt) and/or the dilution rate (D) of the steady state of chemostat cultures of suspensions cells over a certain time interval (t): μ=D+ln(Xt/XO)/t
The activity of Factor VIII (FVIII) (cf. FIGS. 1 to 5) was measured by a chromogenic assay (Chromogenic, Sweden).
The cell specific productivity (qp) is defined as the specific amount of produced protein (U or μg) per number of cells per day.
Small scale experiments with GD8/6 cells in suspension culture were carried out in Techne spinner flasks at 200 ml working volume in batch refeed mode at 37° C., without pH and pO2 control.
The mark [3] stands for this setting: 2 mg/L plus additional supplementation with Fe (II) and Cu (II).

The results in this text go back to US10696731B2, “Oligopeptide-free cell culture media” (Baxalta GmbH, priority 2006, dated 2020).

As to `NCCCCN` [Putrescine.2HCl], the volumetric productivity entry in the experiment with GD8/6 cells [1] (2 mg/L plus Fe (II) and Cu (II), after a further increase of the cell density) is on record as “over 3000 U/L/D”. Besides, in the experiment with GD8/6 cells [1] (setting [3]), the cell specific productivity entry is “over 1700 mU/10E06 cells/day”, the specific growth rate entry is recorded as “approximately 0.60 d^−1” and the volumetric productivity result is on record as “over 2685 U/L/D”. Moreover, in the experiment on GD8/6 cells [1] (addition of 2 mg/L after 11 days of continuous feed of BAV-medium, 10 L bioreactor), the “increase of volumetric FVIII-expression” value worked out at 800%. For the same compound, the “FVIII expression (volumetric productivity)” value in the experiment with GD8/6 cells [1] (addition of 2 mg/L, BAV-medium without it averaged 271 U/L/D) is 870 U/L/D.

As for `NCCC[C@H](N)C(=O)O` [Ornithine], in the experiment on GD8/6 cells [2], the “ability to substitute putrescine (FVIII productivity and growth)” value (“ability to substitute putrescine” for short) was “could partially substitute putrescine in a concentration-dependent manner”.

Take `NCCO` [ethanolamine, reference compound]: the “ability to substitute putrescine” value with GD8/6 cells [2] is listed as “could neither replace putrescine in any concentration investigated”.

On to `NCCCNCCCCNCCCN` [spermine], for which the “ability to substitute putrescine” value in the experiment on GD8/6 cells [2] was “could also substitute putrescine in a concentration-dependent manner”.
